# Laboratory results taken from patent US9174994B2, “Enhanced treatment regimens using mTor inhibitors” (INTELLIKINE LLC, priority 2011, dated 2015).
# System: PC3
# Assay: PC3 proliferation
# Type: cell-based
# Conditions: Homo sapiens, PC-3; Table 1
row,IC50,Compound
1,< 1 µM,CC(=O)Nc1nc2cc(-c3nn(C(C)C)c4ncnc(N)c34)ccc2o1 [Compound 2]
2,< 10 µM,CC(C)n1nc(-c2ccc3nc(N)oc3c2)c2c(N)ncnc21 [Compound 4]
3,< 0.1 µM,Nc1nc2cc(-c3nn(C4CCOCC4)c4ncnc(N)c34)ccc2o1 [Compound 5]
4,< 1 µM,Nc1nc2cc(-c3nn(C4CCC(N5CCOCC5)CC4)c4ncnc(N)c34)ccc2o1 (stereo not shown) [Compound 6]
5,< 10 µM,CC(=O)N1CCC(n2nc(-c3ccc4oc(N)nc4c3)c3c(N)ncnc32)CC1 [Compound 7]
6,< 0.1 µM,CC(C)n1cc(-c2ccc3oc(N)nc3c2)c2c(N)ncnc21 [Compound 8]
7,< 0.1 µM,Nc1nc2cc(-c3cn(C4CCOCC4)c4ncnc(N)c34)ccc2o1 [Compound 9]
8,> 10 µM,CC(C)n1nc(-c2ccc3onc(N)c3c2)c2c(N)ncnc21 [Compound 10]
9,> 10 µM,CC(=O)Nc1noc2cc(-c3nn(C(C)C)c4ncnc(N)c34)ccc12 [Compound 11]
10,> 10 µM,CC(C)n1nc(-c2ccc3c(N)noc3c2)c2c(N)ncnc21 [Compound 12]
